As a reminder, the IC50 is the concentration that inhibits the measured activity by half. In general, inhibition refers to the percentage by which the read-out fell short of the control.

Consider 23 compounds from patent US10865208B2, “ATG7 inhibitors and the uses thereof” (Millennium Pharmaceuticals, Inc., priority 2016, dated 2020).

This assay concerns the target recombinant human His-ATG7 enzyme (Homo sapiens (Human), UniProt O95352). Put plainly: ATG7 Enzyme Assay (HTRF/FRET, ATG3-GST and Flag-Gabarap). In kind it is biochemical. The settings on record: for inhibition at 0.111 µM: Concentration 0.111 μM; for inhibition at 0.111 µM / inhibition at 0.123 µM / inhibition at 0.069 µM: read-out: Percent Inhibition; for inhibition at 0.069 µM: Concentration 0.069 μM. The gist of the method: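 HTRF read-out after 2 h at 24° C, using Eu-cryptate anti-Flag and XL-APC anti-GST antibodies in an EDTA stop buffer. The preceding 105 min, 24° C reaction (pH 7.5) held 10 μM ATP, 5 nM each ATG3-GST and Flag-Gabarap, and 0.15 nM human His-ATG7. Values are IC50 or percent inhibition at one concentration.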
For orientation: In TR-FRET formats the signal depends on donor and acceptor labels being close together.

Molecules are shown by their SMILES.

Chain of recombinant human His-ATG7 enzyme (O95352 whole entry): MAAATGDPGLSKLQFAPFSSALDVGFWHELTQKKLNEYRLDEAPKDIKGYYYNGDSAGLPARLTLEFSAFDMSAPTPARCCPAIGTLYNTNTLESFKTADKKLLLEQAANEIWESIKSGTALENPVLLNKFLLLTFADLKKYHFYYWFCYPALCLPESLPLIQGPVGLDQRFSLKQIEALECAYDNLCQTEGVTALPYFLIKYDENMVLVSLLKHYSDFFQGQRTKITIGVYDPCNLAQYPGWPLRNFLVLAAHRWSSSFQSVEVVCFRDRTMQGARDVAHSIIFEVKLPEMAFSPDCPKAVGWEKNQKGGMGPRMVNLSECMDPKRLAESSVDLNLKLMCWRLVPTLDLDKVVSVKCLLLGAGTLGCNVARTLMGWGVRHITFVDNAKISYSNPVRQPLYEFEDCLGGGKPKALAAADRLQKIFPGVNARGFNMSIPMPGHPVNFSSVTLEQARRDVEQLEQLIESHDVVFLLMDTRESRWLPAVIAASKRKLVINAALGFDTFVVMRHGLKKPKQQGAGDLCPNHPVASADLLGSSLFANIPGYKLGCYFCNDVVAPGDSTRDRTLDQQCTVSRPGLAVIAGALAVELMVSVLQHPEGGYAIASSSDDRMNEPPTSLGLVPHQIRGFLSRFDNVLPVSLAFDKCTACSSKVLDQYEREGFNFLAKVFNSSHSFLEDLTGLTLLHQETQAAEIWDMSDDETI

For the compound `Nc1ncnc2c1c(Sc1ccc(F)cc1)nn2[C@H]1C[C@H](O)[C@H](COS(N)(=O)=O)O1` [Compound I-223, [(2S,3S,5R)-5-{4-amino-3-[(4-fluorophenyl)sulfanyl]-1H-pyrazolo[3,4-d]pyrimidin-1-yl}-3-hydroxytetrahydrofuran-2-yl]methyl sulfamate], the IC50 fell in the range of 0.1 to 0.5 µM and the inhibition at 0.111 µM came to 35%.

For `CC(C)CSc1nn([C@@H]2O[C@H](COS(N)(=O)=O)[C@@H](O)[C@H]2O)c2ncnc(N)c12` [Compound I-77, {(2R,3S,4R,5R)-5-[4-amino-3-(isobutylsulfanyl)-1H-pyrazolo[3,4-d]pyrimidin-1-yl]-3,4-dihydroxytetrahydrofuran-2-yl}methyl sulfamate], the IC50 lay in the range of 0.02 to 0.05 µM. Besides, the inhibition at 0.123 µM (Concentration 0.123 μM) is 85%.

As to `Nc1ncnc2c1c(SCc1cccnc1)nn2[C@@H]1O[C@H](COS(N)(=O)=O)[C@@H](O)[C@H]1O` [Compound I-45, [(2R,3S,4R,5R)-5-{4-amino-3-[(pyridin-3-ylmethyl)sulfanyl]-1H-pyrazolo[3,4-d]pyrimidin-1-yl}-3,4-dihydroxytetrahydrofuran-2-yl]methyl sulfamate], the IC50 fell in the range of 0.02 to 0.05 µM. The inhibition at 0.123 µM (Concentration 0.123 μM) was 73%.

As to `CC1OCCC1Sc1nn([C@@H]2O[C@H](COS(N)(=O)=O)[C@@H](O)[C@H]2O)c2ncnc(N)c12` (stereo partly drawn) [Compound I-92], the IC50 was 0.1 to 0.5 µM. Moreover, where the note is “Concentration 0.123 μM”, the inhibition at 0.123 µM was 50%.

`N#Cc1nn([C@@H]2O[C@H](COS(N)(=O)=O)[C@@H](O)[C@H]2O)c2ncnc(N)c12` [Compound I-13, [(2R,3S,4R,5R)-5-(4-amino-3-cyano-1H-pyrazolo[3,4-d]pyrimidin-1-yl)-3,4-dihydroxytetrahydrofuran-2-yl]methyl Sulfamate]: the IC50 is 0.02 to 0.05 µM. Further, where the note is “Concentration 0.123 μM”, the inhibition at 0.123 µM was found to be 80%.

For `Nc1ncnc2c1c(SC(F)F)nn2[C@@H]1O[C@H](COS(N)(=O)=O)[C@@H](O)[C@@H]1F` [Compound I-98, [(2R,3R,4S,5R)-5-{4-amino-3-[(difluoromethyl)sulfanyl]-1H-pyrazolo[3,4-d]pyrimidin-1-yl}-4-fluoro-3-hydroxytetrahydrofuran-2-yl]methyl sulfamate], the IC50 is 0.02 to 0.05 µM and the inhibition at 0.111 µM was 77%.

Consider `CCc1nn([C@@H]2O[C@H](COS(N)(=O)=O)[C@@H](O)[C@H]2O)c2ncnc(N)c12` [Compound I-6, [(2R,3S,4R,5R)-5-(4-amino-3-ethyl-1H-pyrazolo[3,4-d]pyrimidin-1-yl)-3,4-dihydroxytetrahydrofuran-2-yl]methyl Sulfamate], for which the IC50 was 0.1 to 0.5 µM and the inhibition at 0.069 µM amounted to 31%.

As to `Nc1ncnc2c1c(SCCO)nn2[C@@H]1O[C@H](COS(N)(=O)=O)[C@@H](O)[C@@H]1F` [Compound I-151, [(2R,3R,4S,5R)-5-{4-amino-3-[(2-hydroxyethyl)sulfanyl]-1H-pyrazolo[3,4-d]pyrimidin-1-yl}-4-fluoro-3-hydroxytetrahydrofuran-2-yl]methyl Sulfamate], the inhibition at 0.111 µM amounted to 76%.

Consider `COc1ccc(CSc2nn([C@@H]3O[C@H](COS(N)(=O)=O)[C@@H](O)[C@H]3O)c3ncnc(N)c23)cc1` [Compound I-38, [(2R,3S,4R,5R)-5-{4-amino-3-[(4-methoxybenzyl)sulfanyl]-1H-pyrazolo[3,4-d]pyrimidin-1-yl}-3,4-dihydroxytetrahydrofuran-2-yl]methyl sulfamate], for which the IC50 is 0.02 to 0.05 µM. Besides, the inhibition at 0.123 µM (Concentration 0.123 μM) is 84%.

As for `Nc1ncnc2c1c(SCc1cccnn1)nn2[C@@H]1O[C@H](COS(N)(=O)=O)[C@@H](O)[C@@H]1F` [Compound I-127, [(2R,3R,4S,5R)-5-{4-amino-3-[(pyridazin-3-ylmethyl)sulfanyl]-1H-pyrazolo[3,4-d]pyrimidin-1-yl}-4-fluoro-3-hydroxytetrahydrofuran-2-yl]methyl sulfamate], the IC50 lay within 0.05 to 0.1 µM and the inhibition at 0.111 µM came to 61%.

Regarding `Nc1ncnc2c1c(SC(F)F)nn2[C@H]1C[C@H](O)[C@@H](COS(N)(=O)=O)O1` [Compound I-169, [(2R,3S,5R)-5-{4-amino-3-[(difluoromethyl)sulfanyl]-1H-pyrazolo[3,4-d]pyrimidin-1-yl}-3-hydroxytetrahydrofuran-2-yl]methyl sulfamate], the IC50 is 0.05 to 0.1 µM and the inhibition at 0.111 µM was 57%.

In the case of `Nc1ncnc2c1c(Sc1ccc(OC(F)(F)F)cc1)nn2[C@H]1C[C@H](O)[C@@H](COS(N)(=O)=O)O1` [Compound I-197, [(2R,3S,5R)-5-(4-amino-3-{[4-(trifluoromethoxy)phenyl]sulfanyl}-1H-pyrazolo[3,4-d]pyrimidin-1-yl)-3-hydroxytetrahydrofuran-2-yl]methyl sulfamate], the IC50 is 0.1 to 0.5 µM and the inhibition at 0.111 µM came out at 45%.

Turning to `Nc1ncnc2c1c(SCC(F)F)nn2[C@H]1C[C@H](O)[C@H](COS(N)(=O)=O)O1` [Compound I-227, [(2S,3S,5R)-5-{4-amino-3-[(2,2-difluoroethyl)sulfanyl]-1H-pyrazolo[3,4-d]pyrimidin-1-yl}-3-hydroxytetrahydrofuran-2-yl]methyl Sulfamate], the IC50 was 0.1 to 0.5 µM and the inhibition at 0.111 µM worked out at 48%.

Take `Nc1ncnc2c1c(Sc1cccc(C(F)(F)F)c1)nn2[C@@H]1O[C@H](COS(N)(=O)=O)[C@@H](O)[C@@H]1F` [Compound I-158, [(2R,3R,4S,5R)-5-(4-amino-3-{[3-(trifluoromethyl)phenyl]sulfanyl}-1H-pyrazolo[3,4-d]pyrimidin-1-yl)-4-fluoro-3-hydroxytetrahydrofuran-2-yl]methyl sulfamate]: the IC50 was in the range of 0.05 to 0.1 µM and the inhibition at 0.111 µM was determined as 56%.

On to `Nc1ncnc2c1c(C(F)(F)F)nn2[C@@H]1O[C@H](COS(N)(=O)=O)[C@@H](O)[C@H]1O` [Compound I-10, {(2R,3S,4R,5R)-5-[4-amino-3-(trifluoromethyl)-1H-pyrazolo[3,4-d]pyrimidin-1-yl]-3,4-dihydroxytetrahydrofuran-2-yl}methyl Sulfamate], for which the IC50 was 0.05 to 0.1 µM and the inhibition at 0.069 µM was found to be 48%.

For `CC(O)CSc1nn([C@@H]2O[C@H](COS(N)(=O)=O)[C@@H](O)[C@H]2O)c2ncnc(N)c12` (single isomer, unassigned) [Compound I-55a, [(2R,3S,4R,5R)-5-(4-amino-3-{[(2R)-2-hydroxypropyl]sulfanyl}-1H-pyrazolo[3,4-d]pyrimidin-1-yl)-3,4-dihydroxytetrahydrofuran-2-yl]methyl sulfamate or [(2R,3S,4R,5R)-5-(4-amino-3-{[(2S)-2-hydroxypropyl]sulfanyl}-1H-pyrazolo[3,4-d]pyrimidin-1-yl)-3,4-dihydroxytetrahydrofuran-2-yl]methyl Sulfamate], the IC50 was 0.05 to 0.1 µM. Besides, under “Concentration 0.123 μM”, the “Percent Inhibition” value came to 71%.

`Nc1ncnc2c1c(SCC1CC1)nn2[C@@H]1O[C@H](COS(N)(=O)=O)[C@@H](O)[C@@H]1F` [Compound I-135, [(2R,3R,4S,5R)-5-{4-amino-3-[(cyclopropylmethyl)sulfanyl]-1H-pyrazolo[3,4-d]pyrimidin-1-yl}-4-fluoro-3-hydroxytetrahydrofuran-2-yl]methyl sulfamate]: the IC50 is 0.02 to 0.05 µM and the inhibition at 0.111 µM is 82%.

With `COc1cccc(Sc2nn([C@@H]3O[C@H](COS(N)(=O)=O)[C@@H](O)[C@@H]3F)c3ncnc(N)c23)n1` [Compound I-107, [(2R,3R,4S,5R)-5-{4-amino-3-[(6-methoxypyridin-2-yl)sulfanyl]-1H-pyrazolo[3,4-d]pyrimidin-1-yl}-4-fluoro-3-hydroxytetrahydrofuran-2-yl]methyl sulfamate], the IC50 fell in the range of 0.05 to 0.1 µM and the inhibition at 0.111 µM stood at 61%.

Consider `COCc1nn([C@@H]2O[C@H](COS(N)(=O)=O)[C@@H](O)[C@H]2O)c2ncnc(N)c12` [Compound I-19, {(2R,3S,4R,5R)-5-[4-amino-3-(methoxymethyl)-1H-pyrazolo[3,4-d]pyrimidin-1-yl]-3,4-dihydroxytetrahydrofuran-2-yl}methyl Sulfamate], for which the IC50 is 0.1 to 0.5 µM. Further, for the setting “Concentration 0.123 μM”, the inhibition at 0.123 µM was 32%.

`Nc1ncnc2c1c(Sc1ccncc1)nn2[C@@H]1O[C@H](COS(N)(=O)=O)[C@@H](O)[C@@H]1F` [Compound I-150, {(2R,3R,4S,5R)-5-[4-amino-3-(pyridin-4-ylsulfanyl)-1H-pyrazolo[3,4-d]pyrimidin-1-yl]-4-fluoro-3-hydroxytetrahydrofuran-2-yl}methyl Sulfamate]: the IC50 fell in the range of 0.1 to 0.5 µM and the inhibition at 0.111 µM is 46%.

On to `Nc1ncnc2c1c(OC(F)F)nn2[C@@H]1O[C@H](COS(N)(=O)=O)[C@@H](O)[C@@H]1F` [Compound I-99, {(2R,3R,4S,5R)-5-[4-amino-3-(difluoromethoxy)-1H-pyrazolo[3,4-d]pyrimidin-1-yl]-4-fluoro-3-hydroxytetrahydrofuran-2-yl}methyl Sulfamate], for which the IC50 lay in the range of 0.02 to 0.05 µM and the inhibition at 0.111 µM stood at 70%.

For the compound `Nc1ncnc2c1c(Sc1ccc(Cl)cc1Cl)nn2[C@@H]1O[C@H](COS(N)(=O)=O)[C@@H](O)[C@H]1O` [Compound I-34, [(2R,3S,4R,5R)-5-{4-amino-3-[(2,4-dichlorophenyl)sulfanyl]-1H-pyrazolo[3,4-d]pyrimidin-1-yl}-3,4-dihydroxytetrahydrofuran-2-yl]methyl sulfamate], the IC50 is 0.05 to 0.1 µM. Also, the inhibition at 0.123 µM (Concentration 0.123 μM) was found to be 70%.

Regarding `Nc1ncnc2c1c(SCC1(O)CCCCC1)nn2[C@@H]1O[C@H](COS(N)(=O)=O)[C@@H](O)[C@H]1O` [Compound I-86, [(2R,3S,4R,5R)-5-(4-amino-3-{[(1-hydroxycyclohexyl)methyl]sulfanyl}-1H-pyrazolo[3,4-d]pyrimidin-1-yl)-3,4-dihydroxytetrahydrofuran-2-yl]methyl Sulfamate], the IC50 lay in the range of 0.05 to 0.1 µM. For the same compound, the inhibition at 0.123 µM (Concentration 0.123 μM) was found to be 64%.
